These results are taken from patent US11655235B2, “Pyrrolidine and piperidine compounds” (YUHAN CORPORATION, priority 2019, dated 2023).

Usually IC50 stands for the midpoint of a concentration-inhibition curve.

Structures are written as SMILES. Like-named read-outs stand apart in the source and are kept apart here.

Common to all, as to type: biochemical
One test concerns the target T1, recombinant human DPP8 (Homo sapiens, UniProt Q6V1X1).
T1 construct: purchased PBS Bioscience
The test can be described thus: DPP8 inhibition, fluorogenic substrate Z-Ala-Pro-AMC. As for the experimental part:
The compounds according to the present technology were evaluated in terms of the inhibitory effect on the activity of dipeptidyl peptidases including FAP by using a substrate producing fluorescent substances upon enzymatic decomposition. The test was conducted at 25° C. to get a final reaction volume of 100 μL in a 96 black well plate. […] Briefly, the test compounds were dissolved in dimethyl sulfoxide (DMSO) at a concentration of 20 mM and then subjected to serial dilution, thereby creating an 8 point curve. As for the control group, a 6 point curve created by serial dilution of Talabostat in the same buffer solution was used. Fluorescence intensity was measured using a microplate reader (Flexstation3, Molecular Devices) under the wavelength condition exciting at 380 nm and reading the emission at 460 nm. The inhibitory effect of the test compounds was measured as a decrease (%) in the signal rate as compared to the control group without any inhibitor. Data was fixed to a logistic model with four variables and IC50 value was calculated using GraphPad Prism program. As for recombinant human DPP4 (R&D Systems), 25 mM tris (pH 8.0) buffer as a buffer solution and H-Gly-Pro-AMC (Bachem) as a substrate were used. As for recombinant human DPP7 (R&D Systems), 25 mM MES (pH 6.0) buffer as a buffer solution and Lys-Pro-AMC (Bachem) as a substrate were used. As for recombinant human DPP8 (PBS Bioscience), as a buffer solution, a 10 mM tris (pH 7.4) buffer comprising 10 mM of magnesium chloride and 0.05% of Tween 20, and Z-Ala-Pro-AMC (BPS Bioscience) as a substrate were used. As for recombinant human DPP9 (R&D Systems), a 25 mM tris (pH 8.0) buffer as a buffer solution and H-Gly-Pro-AMC (Bachem) as a substrate were used. As for recombinant human PREP (R&D System), as a buffer solution, a 25 mM tris (pH 7.5) buffer comprising 250 mM sodium chloride and 2.5 mM DTT (Dithiolthreitol), and Z-Gly-Pro-AMC (Bachem) as a substrate were used. The evaluation was made by using 10 ng of DPP4, PDD7, and PREP, 20 ng of DPP8, and 50 ng of DPP9 based on the final reaction. In the evaluation of DPP4, the test compounds were subjected to serial dilution in a buffer under the condition containing up to 0.1% of DMSO. In the evaluation of DPP7, DPP8, DPP9, and PREP, the test compounds were subjected to serial dilution in each buffer under the condition containing up to 0.5% of DMSO.

Another test concerns the target T2, recombinant human PREP (Homo sapiens, UniProt P48147).
T2 construct: purchased R&D System
T2 sequence (P48147 1-710): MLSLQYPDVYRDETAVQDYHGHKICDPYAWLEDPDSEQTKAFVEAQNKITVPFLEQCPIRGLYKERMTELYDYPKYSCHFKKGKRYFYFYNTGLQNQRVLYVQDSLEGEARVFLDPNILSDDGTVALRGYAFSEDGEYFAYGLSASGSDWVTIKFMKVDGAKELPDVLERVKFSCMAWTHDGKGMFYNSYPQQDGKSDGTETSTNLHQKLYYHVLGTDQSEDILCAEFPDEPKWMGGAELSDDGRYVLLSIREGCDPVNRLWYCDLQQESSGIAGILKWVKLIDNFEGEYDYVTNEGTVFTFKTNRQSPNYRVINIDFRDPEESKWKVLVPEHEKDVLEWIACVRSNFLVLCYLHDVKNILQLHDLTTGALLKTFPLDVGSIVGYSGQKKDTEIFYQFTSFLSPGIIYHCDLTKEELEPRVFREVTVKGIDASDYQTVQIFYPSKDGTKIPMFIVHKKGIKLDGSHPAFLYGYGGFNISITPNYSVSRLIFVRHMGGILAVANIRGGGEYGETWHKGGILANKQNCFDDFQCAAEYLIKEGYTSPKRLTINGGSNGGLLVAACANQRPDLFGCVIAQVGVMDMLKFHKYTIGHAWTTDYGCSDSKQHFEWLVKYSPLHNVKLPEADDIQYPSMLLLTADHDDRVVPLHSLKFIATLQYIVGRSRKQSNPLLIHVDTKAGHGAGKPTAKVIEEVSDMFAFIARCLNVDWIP
The test can be described thus: PREP inhibition, fluorogenic substrate Z-Gly-Pro-AMC. Conditions: Inhibitory Activity (IC50, nM) PREP, 25° C., Z-Gly-Pro-AMC substrate. In a few lines: (§1)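 Enzyme per reaction: 50 ng DPP9, 20 ng DPP8, 10 ng each DPP7 and PREP. Compounds were serially diluted (8 points, up to 0.5% DMSO) and incubated at 25 °C.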

In the next test the target is T3, recombinant human DPP9 (Homo sapiens, UniProt Q86TI2).
T3 construct: purchased R&D Systems
The test is described as follows: DPP9 inhibition, fluorogenic substrate H-Gly-Pro-AMC. In outline:
as §1

In the next test the target is T4, recombinant human DPP7 (Homo sapiens, UniProt Q9UHL4).
T4 construct: purchased R&D Systems
The test is described as follows: DPP7 inhibition, fluorogenic substrate Lys-Pro-AMC. In outline:
as §1

Another test addresses T5, Recombinant human FAP (Homo sapiens, UniProt Q12884).
T5 construct: purchased R&D systems
T5 sequence (Q12884 1-760): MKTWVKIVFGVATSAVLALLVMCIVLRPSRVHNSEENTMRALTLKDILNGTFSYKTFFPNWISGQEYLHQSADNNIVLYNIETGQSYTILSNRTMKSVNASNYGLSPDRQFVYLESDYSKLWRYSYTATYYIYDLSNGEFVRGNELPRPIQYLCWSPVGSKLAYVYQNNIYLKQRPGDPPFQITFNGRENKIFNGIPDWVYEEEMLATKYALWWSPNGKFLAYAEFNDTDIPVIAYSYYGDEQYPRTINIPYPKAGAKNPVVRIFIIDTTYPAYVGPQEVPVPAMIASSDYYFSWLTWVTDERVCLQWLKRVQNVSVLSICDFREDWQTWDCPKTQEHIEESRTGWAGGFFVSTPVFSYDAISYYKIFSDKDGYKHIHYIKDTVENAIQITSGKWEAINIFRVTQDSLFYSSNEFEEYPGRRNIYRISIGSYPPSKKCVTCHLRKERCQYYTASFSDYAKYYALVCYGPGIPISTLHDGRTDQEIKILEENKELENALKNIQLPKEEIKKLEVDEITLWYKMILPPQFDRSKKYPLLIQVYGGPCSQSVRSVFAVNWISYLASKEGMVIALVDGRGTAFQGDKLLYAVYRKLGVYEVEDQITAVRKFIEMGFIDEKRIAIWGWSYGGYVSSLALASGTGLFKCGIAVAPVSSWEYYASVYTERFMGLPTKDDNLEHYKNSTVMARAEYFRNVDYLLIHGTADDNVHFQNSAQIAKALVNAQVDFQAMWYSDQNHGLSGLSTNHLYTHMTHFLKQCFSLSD
The test is described as follows: FAP inhibition, fluorogenic substrate Z-Gly-Pro-AMC. In outline:
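Recombinant human FAP, 10 ng per reaction, in 50 mM Tris pH 7.5 with 1 M NaCl and 1 mg/ml BSA at 25° C; substrate Z-Gly-Pro-AMC, ≤0.1% DMSO. AMC fluorescence read at ex 380/em 460 nm; % signal-rate decrease vs no-inhibitor control, 8-point curves fitted to a four-parameter logistic for IC50.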

The target of another test is DPP4 (Homo sapiens, UniProt P27487). The test can be described thus: DPP4 inhibition, fluorogenic substrate H-Gly-Pro-AMC. Set-up: purchased R&D Systems. To be noted: recombinant human DPP4.
The mark [1] stands for this setting: 25° C., Z-Ala-Pro-AMC substrate.
Where [2] appears, read: 25° C., H-Gly-Pro-AMC substrate.
Where [3] appears, read: 25° C., Z-Gly-Pro-AMC substrate.

T3 sequence (Q86TI2 whole entry): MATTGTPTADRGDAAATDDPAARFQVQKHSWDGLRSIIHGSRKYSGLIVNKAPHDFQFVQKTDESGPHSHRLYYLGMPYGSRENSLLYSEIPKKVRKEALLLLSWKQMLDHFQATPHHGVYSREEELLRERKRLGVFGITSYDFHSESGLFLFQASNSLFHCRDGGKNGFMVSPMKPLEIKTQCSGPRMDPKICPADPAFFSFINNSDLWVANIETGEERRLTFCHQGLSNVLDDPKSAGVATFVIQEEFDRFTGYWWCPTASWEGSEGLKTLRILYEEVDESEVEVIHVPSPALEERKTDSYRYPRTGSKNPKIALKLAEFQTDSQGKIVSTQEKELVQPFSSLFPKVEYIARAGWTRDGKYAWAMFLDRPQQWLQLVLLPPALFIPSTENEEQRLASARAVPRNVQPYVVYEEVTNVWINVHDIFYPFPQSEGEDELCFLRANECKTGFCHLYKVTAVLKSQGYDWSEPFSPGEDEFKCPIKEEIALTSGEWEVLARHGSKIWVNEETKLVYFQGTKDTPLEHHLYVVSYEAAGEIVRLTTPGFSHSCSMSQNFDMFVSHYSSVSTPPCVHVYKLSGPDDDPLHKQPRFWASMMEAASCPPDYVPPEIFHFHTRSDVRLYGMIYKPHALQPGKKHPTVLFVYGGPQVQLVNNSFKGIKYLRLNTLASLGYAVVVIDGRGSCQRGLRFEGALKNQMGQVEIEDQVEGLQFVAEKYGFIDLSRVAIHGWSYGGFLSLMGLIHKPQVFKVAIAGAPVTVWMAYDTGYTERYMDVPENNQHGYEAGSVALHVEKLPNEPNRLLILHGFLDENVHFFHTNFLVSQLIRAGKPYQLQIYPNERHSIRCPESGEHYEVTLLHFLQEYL
T1 sequence (Q6V1X1 whole entry): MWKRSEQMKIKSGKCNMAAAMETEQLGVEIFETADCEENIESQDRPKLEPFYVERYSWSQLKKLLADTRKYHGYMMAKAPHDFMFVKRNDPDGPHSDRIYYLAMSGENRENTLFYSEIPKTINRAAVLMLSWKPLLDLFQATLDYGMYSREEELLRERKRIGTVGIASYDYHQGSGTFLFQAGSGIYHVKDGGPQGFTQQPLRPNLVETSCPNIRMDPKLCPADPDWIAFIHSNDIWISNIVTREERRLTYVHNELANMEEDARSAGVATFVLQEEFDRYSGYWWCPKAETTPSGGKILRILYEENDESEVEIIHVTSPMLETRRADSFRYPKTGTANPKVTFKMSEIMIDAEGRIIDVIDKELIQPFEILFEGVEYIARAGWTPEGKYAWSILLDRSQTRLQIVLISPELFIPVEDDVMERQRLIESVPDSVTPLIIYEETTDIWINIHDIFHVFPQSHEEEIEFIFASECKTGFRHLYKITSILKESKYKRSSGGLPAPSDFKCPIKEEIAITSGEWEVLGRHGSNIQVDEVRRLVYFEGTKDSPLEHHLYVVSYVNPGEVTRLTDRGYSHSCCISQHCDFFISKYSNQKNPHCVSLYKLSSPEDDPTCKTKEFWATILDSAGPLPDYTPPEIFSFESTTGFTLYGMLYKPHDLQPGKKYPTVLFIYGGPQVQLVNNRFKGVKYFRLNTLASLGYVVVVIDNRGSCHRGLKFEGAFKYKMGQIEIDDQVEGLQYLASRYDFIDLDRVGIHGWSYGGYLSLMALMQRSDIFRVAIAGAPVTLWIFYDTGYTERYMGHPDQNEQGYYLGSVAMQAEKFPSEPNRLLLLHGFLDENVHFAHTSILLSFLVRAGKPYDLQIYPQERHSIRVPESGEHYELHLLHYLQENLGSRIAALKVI
Chain of DPP4 (P27487 whole entry): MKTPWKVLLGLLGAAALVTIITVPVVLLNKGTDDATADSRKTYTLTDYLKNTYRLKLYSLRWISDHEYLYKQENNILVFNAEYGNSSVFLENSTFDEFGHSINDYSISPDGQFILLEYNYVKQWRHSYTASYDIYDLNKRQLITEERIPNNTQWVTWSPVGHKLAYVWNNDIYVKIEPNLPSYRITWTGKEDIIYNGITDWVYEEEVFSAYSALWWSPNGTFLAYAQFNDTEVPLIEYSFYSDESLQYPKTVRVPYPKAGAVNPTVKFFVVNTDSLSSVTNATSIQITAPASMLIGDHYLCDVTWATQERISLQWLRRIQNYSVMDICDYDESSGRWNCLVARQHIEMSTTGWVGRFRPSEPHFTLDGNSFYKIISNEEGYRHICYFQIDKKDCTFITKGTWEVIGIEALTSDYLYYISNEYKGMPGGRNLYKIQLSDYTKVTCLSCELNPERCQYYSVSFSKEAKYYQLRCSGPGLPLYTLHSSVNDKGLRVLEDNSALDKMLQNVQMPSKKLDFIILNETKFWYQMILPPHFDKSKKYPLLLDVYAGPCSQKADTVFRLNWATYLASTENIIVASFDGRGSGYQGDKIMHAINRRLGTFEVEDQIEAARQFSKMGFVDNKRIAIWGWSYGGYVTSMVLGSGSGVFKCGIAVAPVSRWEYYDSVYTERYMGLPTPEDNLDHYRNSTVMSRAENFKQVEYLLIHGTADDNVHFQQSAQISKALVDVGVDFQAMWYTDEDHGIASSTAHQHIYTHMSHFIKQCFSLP

As to `CN(c1cnc2ccccc2c1)[C@@H]1CCN(CC(=O)N2CCC[C@H]2C#N)C1` [Example 138, (2S)-1-[2-[(3R)-3-[methyl(3-quinolyl)amino]pyrrolidin-1-yl]acetyl]pyrrolidine-2-carbonitrile], the IC50 at recombinant human DPP8 (setting [1]) is at least 100 µM; at recombinant human PREP, 7970 nM; at recombinant human DPP9 (setting [2]), at least 100 µM; at recombinant human DPP7, 3.7 µM; on Recombinant human FAP (setting [3]), 0.0248 µM.
Regarding `CN(c1cccc2ncccc12)[C@@H]1CCN(CC(=O)N2CCC[C@H]2C#N)C1` [Example 139, (2S)-1-[2-[(3R)-3-[methyl(5-quinolyl)amino]pyrrolidin-1-yl]acetyl]pyrrolidine-2-carbonitrile], the IC50 was at least 100 µM on recombinant human DPP8 (setting [1]); 5020 nM on recombinant human PREP; 89 µM at recombinant human DPP9 (setting [2]); 13 µM at recombinant human DPP7; 0.0167 µM at Recombinant human FAP (setting [3]).
In the same order, the values of `CN(c1ccc2ncccc2c1)[C@@H]1CCN(CC(=O)N2CCC[C@H]2C#N)C1` [Example 140, (2S)-1-[2-[(3R)-3-[methyl(6-quinolyl)amino]pyrrolidin-1-yl]acetyl]pyrrolidine-2-carbonitrile] are at least 100 µM, 4260 nM, 32.6 µM, 1.4 µM and 0.0157 µM.
On the same counts, the results for `CN(c1cnc2ccccc2c1)[C@H]1CCN(CC(=O)N2CCC[C@H]2C#N)C1` [Example 142, (2S)-1-[2-[(3S)-3-[methyl(3-quinolyl)amino]pyrrolidin-1-yl]acetyl]pyrrolidine-2-carbonitrile] are at least 100 µM, 4510 nM, 71 µM, 4.99 µM and 0.0026 µM.
On the same counts, the results for `CN(c1cccc2ncccc12)[C@H]1CCN(CC(=O)N2CCC[C@H]2C#N)C1` [Example 144, (2S)-1-[2-[(3S)-3-[methyl(5-quinolyl)amino]pyrrolidin-1-yl]acetyl]pyrrolidine-2-carbonitrile] are 85 µM, 3360 nM, 23.8 µM, 19.3 µM and 0.006 µM.
Consider `CN(c1ccc2ncccc2c1)[C@H]1CCN(CC(=O)N2CCC[C@H]2C#N)C1` [Example 145, (2S)-1-[2-[(3S)-3-[methyl(6-quinolyl)amino]pyrrolidin-1-yl]acetyl]pyrrolidine-2-carbonitrile], for which the IC50 is 19.1 µM on recombinant human DPP8 (setting [1]); 2690 nM on recombinant human PREP; 16.8 µM at recombinant human DPP9 (setting [2]); 2.03 µM at recombinant human DPP7; 0.0027 µM at Recombinant human FAP (setting [3]).
In the same order, the values of `CN(c1ccc2cccnc2c1)[C@H]1CCN(CC(=O)N2CCC[C@H]2C#N)C1` [Example 146, (2S)-1-[2-[(3S)-3-[methyl(7-quinolyl)amino]pyrrolidin-1-yl]acetyl]pyrrolidine-2-carbonitrile] are at least 100 µM, 4590 nM, at least 100 µM, 0.916 µM and 0.0066 µM.
In the same order, the values of `CN(c1cccc2cnccc12)[C@H]1CCN(CC(=O)N2CCC[C@H]2C#N)C1` [Example 148, (2S)-1-[2-[(3S)-3-[5-isoquinolyl(methyl)amino]pyrrolidin-1-yl]acetyl]pyrrolidine-2-carbonitrile] are 86.6 µM, 3810 nM, 29.3 µM, 10.8 µM and 0.0073 µM.
On the same counts, the results for `Cc1c(N(C)[C@H]2CCN(CC(=O)N3CCC[C@H]3C#N)C2)cnc2ccccc12` [Example 149, (2S)-1-[2-[(3S)-3-[methyl-(4-methyl-3-quinolyl)amino]pyrrolidin-1-yl]acetyl]pyrrolidine-2-carbonitrile] are at least 100 µM, 1620 nM, 49.1 µM, 3.97 µM and 0.0099 µM.
With `Cc1ccc2ncc(N(C)[C@H]3CCN(CC(=O)N4CCC[C@H]4C#N)C3)cc2c1` [Example 150, (2S)-1-[2-[(3S)-3-[methyl-(6-methyl-3-quinolyl)amino]pyrrolidin-1-yl]acetyl]pyrrolidine-2-carbonitrile], the IC50 is at least 100 µM at recombinant human DPP8 (setting [1]); 2640 nM at recombinant human PREP; 39.6 µM at recombinant human DPP9 (setting [2]); 1.83 µM at recombinant human DPP7; 0.0011 µM at Recombinant human FAP (setting [3]).
For the molecule `COc1ccc2nc(C)cc(OC3CCN(CC(=O)N4C[C@@H](F)C[C@H]4C#N)CC3)c2c1` [Example 424, (2S,4S)-4-fluoro-1-[2-[4-[(6-methoxy-2-methyl-4-quinolyl)oxy]-1-piperidyl]acetyl]pyrrolidine-2-carbonitrile], the half-inhibitory concentration (IC50) is 13.1 µM at recombinant human DPP8 (recombinant human DPP8); 48.9 µM on recombinant human DPP9 (recombinant human DPP9); 3.89 µM on recombinant human DPP7 (recombinant human DPP7); above 10 µM on DPP4; 0.0023 µM on Recombinant human FAP (recombinant human FAP, substrate Z-Gly-Pro-AMC).
